Laboratory results taken from PMC12304045 (2025).

Assays:
[1] = test system: OTC-APT5, amine-terminated (DNA, aptamer) ACGACATTCCGTTGATCTCTCCCTTTTGGGTTGGTGTCGT; experiment: DPV aptasensor, [Fe(CN)6]3-/4- probe; settings: 2 mM MgCl2, 10 mM phosphate buffer pH 7.4
[2] = test system: OTC-APT5 (DNA, aptamer) ACGACATTCCGTTGATCTCTCCCTTTTGGGTTGGTGTCGT; experiment: circular dichroism; settings: 100 mM NaCl, 5 mM KCl, 2 mM MgCl2, 2 mM CaCl2; 20 mM tris, 0.05% Tween 20, 25 °C; 2 μM aptamer
[3] = test system: OTC-APT5 (DNA, aptamer) ACGACATTCCGTTGATCTCTCCCTTTTGGGTTGGTGTCGT; experiment: fluorescence titration; settings: 100 mM NaCl, 5 mM KCl, 2 mM MgCl2, 2 mM CaCl2; 20 mM tris, 0.05% Tween 20; 200 nM OTC titrated with aptamer; unit likely misprint for nM
[4] = test system: OTC-APT5 (DNA, aptamer) ACGACATTCCGTTGATCTCTCCCTTTTGGGTTGGTGTCGT; experiment: fluorescence polarization titration; settings: 100 mM NaCl, 5 mM KCl, 2 mM MgCl2, 2 mM CaCl2; 20 mM tris, 0.05% Tween 20; 200 nM OTC titrated with aptamer
[5] = highest tested 250 ng/mL, signal change <10% of OTC

How did the binding [1, 5] turn out when NC[C@H]1O[C@H](O[C@H]2[C@H](O)[C@@H](O[C@H]3O[C@H](CO)[C@@H](O)[C@H](N)[C@H]3O)[C@H](N)C[C@@H]2N)[C@H](O)[C@@H](O)[C@@H]1O was run?
Its binding is “no”.

CC1(C)S[C@@H]2[C@H](NC(=O)[C@H](N)c3ccccc3)C(=O)N2[C@H]1C(=O)O was tested. Which binding ([1]; tested at fivefold excess over OTC, signal change <10% of OTC) did it give?
Its binding is “no”.

How did the binding ([1]; 50 ng/mL, signal similar to OTC) turn out when CN(C)[C@@H]1C(=O)C(C(N)=O)=C(O)[C@@]2(O)C(=O)C3=C(O)c4c(O)cccc4[C@@](C)(O)[C@H]3C[C@@H]12 was run?
The binding was “yes”.

CC1(C)S[C@@H]2[C@H](NC(=O)Cc3ccccc3)C(=O)N2[C@H]1C(=O)O was tested. Which binding [1, 5] did it give?
Its binding is “no”.

What does the source list for CN(C)[C@@H]1C(=O)C(C(N)=O)=C(O)[C@@]2(O)C(=O)C3=C(O)c4c(O)cccc4[C@@](C)(O)[C@H]3[C@H](O)[C@@H]12?
binding [2]: yes; Kd [3]: 106 nM; Kd [4]: 62 nM; binding ([1]; 50 ng/mL OTC): yes

With CN[C@@H]1[C@H](O[C@H]2[C@H](O[C@H]3[C@H](O)[C@@H](O)[C@H](N=C(N)N)[C@@H](O)[C@@H]3N=C(N)N)O[C@@H](C)[C@]2(O)C=O)O[C@@H](CO)[C@H](O)[C@H]1O as the compound, how does the binding [1, 5] read?
The binding was “no”.
